Laboratory results reported in US20060135415A1, “Immunomodulation and effect on cell processes relating to serotonin family receptors and the blood-brain barrier” (priority 2002, published 2006).
“Also recorded” adds a separate entry of the source.

What was measured:
[1] = test system: ConA stimulated human lymphocytes; assay: Human mitogenic (ConA) stimulation, 3H-thymidine incorporation; type: cell-based; conditions: for activation / proliferative response: 5 μg/ml ConA, harvest 72 hours, drug titration (FIGS. 7A, 8A, 9A, 17, 33)
Description: Blood from healthy volunteers was drawn using venipuncture, using Vacutainer collection sets and heparinized collection vials. The blood was diluted 1:1 using HBSS to a total volume of 30 ml in 50 ml conical tubes (Fisher Scientific, Co., Pittsburgh, Pa.). […] Cells from the buffy coats were collected and the residual Histopaque was washed away using repeated centrifugations in HBSS. After washes, cells were resuspended at 5 million cells per ml in RPMI, supplemented with 2% FBS. To remove adherent cells, the suspension was plated onto a 6 well flat-bottom plate (Corning Costar), 3 ml/well, and incubated for 2 hours at 37° C., 5% CO2. Non-adherent cells were harvested after this incubation, were counted and resuspended in RPMI supplemented with 10% human serum (Sigma).
All drugs were pre-plated before the cell suspension was added onto each well of a 96-well round-bottom plate. All experimental conditions were assayed in at least triplicate. Cells suspended in RPMI supplemented with 10% human serum were plated at 100,000 cells per well to a final volume of 200 μl. […] Control samples received no ConA stimulation. The plates were incubated at 37° C. and 5% CO2.

[2] = test system: allogeneic stimulation of human lymphocytes; assay: Human mixed lymphocyte reaction (allogeneic stimulation), 3H-thymidine; type: cell-based; conditions: allogeneic stimulation, harvest 120 hours, drug titration (FIGS. 7B, 8B, 9B)
Description: Blood from two healthy, non-related, donors was taken as described above. Peripheral blood mononuclear cells were isolated as described previously elsewhere. The adherent cells were separated from the suspension cells as described previously for both donors. Suspension cells from both donors (donors A and B) were used as responders. The remaining adherent cells from each of the donors were used as stimulators against a different donor (suspension A against adherent B and adherent A against suspension B). The stimulator cells were irradiated at 35 Gy. Drugs were pre-plated onto 96 well, U-bottom plates in triplicate. 200,000 “stimulator” cells in RPMI supplemented with 10% human serum were then plated in each well. 200,000 “responder” cells in the same medium were then plated over stimulators to a final volume of 200 μl/well. Background controls received either no stimulator cells, or no responder cells. The plates were incubated at 37° C. and 5% CO2. 1 μCi of tritiated thymidine was added to each well after 4.5 days, and the plates were harvested 12 hours later.

[3] = test system: allogeneic CTL response against P815 cells; assay: Murine allograft model, CTL killing of P815 target cells by splenocytes; type: in vivo, C57BL/6J mice; conditions: Cyclosporin A 100 μg ip daily from day −2; for allograft (CTL) response: 5HT antagonists 200 μg/injection tail vein days 6 and 8, sacrifice day 14 (FIGS. 13, 14); for allogeneic killing response: serotonin-specific compounds 300 μg/injection tail vein days 5 and 7, sacrifice day 14 (FIGS. 18A, 18B)
Description: The in vivo validation screen used was an art-recognized murine allogeneic rejection model as described in Zhan et al., 2000. For this assay, a complete MHC miss-match system was employed wherein 5×10^6 P815 cells ([H-2^d] DBA/2 mastocytoma) were injected into the peritoneal cavity of C57BL/6J (H-2^b) mice on day 0 of the experiment. These mice typically generate a strong cytotoxic T lymphocyte (CTL) reaction in response to P815 cells. Following the initial P815 cell inoculation, the mice were allowed to develop a CTL response (this usually takes about 10-14 days). […] Mice were then sacrificed on day 14 of the experiment as indicated in the figures; and the allogeneic CTL response was assayed as described previously (Tretiakova et al., 2000, Nature Biotechnology 18:984-988). The primary spleen cells from the treated and untreated animals were used in the direct CTL readout. Freshly obtained primary spleen cells were incubated with the [^3H] labeled target cells (P815 cells) at 100:1, 50:1, 25:1, and 12.5:1 ratios for 3.5 hours at 37° C. and harvested using a PHD harvester. The percentage of specific killing was determined using the formula % kill=(S−E)/S, where S is the amount of the DNA retained by the target cells in the absence of the effector cells and E is the amount of retained DNA in the presence of the effector cells (expressed in counts per minute; cpm).
This is an art-recognized model of allograft […] rejection based on that described by […]. (2000). In this model, there is a complete MHC mismatch between the P815 cells (H-2^d) and the C57BL6 mouse (H-2^b), thus ensuring an aggressive immune response. The data disclosed in FIG. 13, depicts results of experiments that included 6 treatment groups, each group consisting of three mice. Each mouse received 5×10^6 P815 cells injected into the peritoneal cavity on day 0 of the study. The first group was an untreated control group, which was used to establish the baseline response of the mice against the allogeneic stimulus. These mice, without any further treatments, were sacrificed, as were the other treatment groups, on day 14 of the study and their splenocytes assayed for target-specific killing of the P815 cells.
The average kill observed for the untreated group was about 45% at an effector to target ratio of 100:1. The second group was treated with risperidone, a 5HT-2 antagonist, administered via a tail vein bolus injection (200 μg/injection) on days 6 and 8 of the study. The timing of the drug administration was selected to ensure that the T cells were fully activated prior to the drug treatment. The third group was treated with propanolol, a 5HT-1 antagonist. All of the 5HT receptor antagonist-treated groups were treated as described for the risperidone-treated group. The fourth group was treated chronically with CyclosporinA. The Cyclosporin A was administered ip at a dosage of 100 μg/injection starting two days prior to the onset of the study, i.e., at day −2, and the injections were continued on a daily basis for the duration of the study.
Finally, studies conducted in vivo using the CD8-dependent allograft rejection model, in which P815 cells (a rapidly growing cell line taken from a mastocytoma in a DBA mouse), were expanded and used to create a robust rejection response in a C57BL6 mouse. In this study the mice received 5×10^6 P815 cells injected into their peritoneal cavity on day 0 of the study. The first group was an untreated control group (naïve animals), used to acquire the baseline response of the mice against the allogeneic stimulus. The positive controls were treated with the allogeneic cells without any further treatments. These animals were used to assess the induced allogeneic response against the P815 cells. […]

RPMI-8226 cells = assay: Cytospin histochemistry (H&E, bis-benzamide) for chromatin; type: cell-based, human; conditions: 9 hour treatments, 50 μM SB compounds, 2 μM camptothecin (FIGS. 28, 29)
Description: 2.0×10^5 RPMI-8226 cells were cultured, in 6-well culture plates, in the presence of the indicated drug concentrations, in a total of 5 mL RPMI-1640 supplemented with 10% FBS. Each well was harvested in its entirety and divided into two identical samples for cytospins.
1.0×10^5 RPMI-8226 cells from each treatment group were loaded into Cyto-funnels and centrifuged at 500 rpm for 4 minutes with medium acceleration. Slides were then fixed through graded methanol in PBS (100%, 5 minutes; 80%, 5 minutes; 50%, 5 minutes), washed for 5 minutes in PBS and stored in PBS at 4° C. until stained.
Cytospun slides were stained with Hematoxylin and Eosin, followed by the nuclear stain, bis-benzamide, rinsed and mounted according to standard staining protocols. Slides were visualized under both brightfield and fluorescent light to generate matched images of the same slide field (see, e.g., FIGS. 28 and 29).

[4] = test system: RPMI 8226 multiple myeloma cells; assay: RPMI 8226 cell viability and proliferation (trypan blue, MTT, 3H-thymidine); type: cell-based, human; conditions: 3H-thymidine uptake, drug titration (FIGS. 19-25, 31, 32)
Description: The human plasmacytoma (multiple myeloma) cell line, RPMI 8226 (American Type Culture Collection, Manassas, Va.), was cultured in RPMI 1640 supplemented with 10 mM HEPES, 1 mM sodium pyruvate, 4.5 g/L glucose, 1.5 g/L bicarbonate and 20% FBS (non-heat inactivated).
Cell proliferation was assayed by three methods—Trypan Blue Exclusion was used to quantify the number of viable cells in culture; 3-(4,5-dimethylthiazol-2-yl)-2,5-diphenyl tetrazolium bromide (MTT) reduction was used to assay mitochondrial activity (and thus cell viability); and ^3H-Thymidine uptake was employed to assay for active DNA synthesis.
Three separate indicators of cell proliferation were employed to study the effects of 5-HT receptor modulating agents on the human multiple myeloma cell line, RPMI 8226. Cells were plated at 4 separate densities and were treated with LY53587 (an antagonist of the 5-HT2A/2B/2C receptors) at a range of concentrations. The exclusion of trypan blue dye was used as an indicator of cell viability. Cell numbers were then plotted against the concentration of drug added.
MTT reduction was also used as an indicator of cell viability (more specifically, mitochondrial activity). Absorbance values at OD570 were then plotted against drug concentration. Finally, DNA synthesis was assayed, through the measurement of ^3H-thymidine uptake, and counts per minute (CPMs) were plotted against drug concentration.
Culturing and administration of drugs and ^3H-thymidine were performed as described elsewhere herein.

N[C@@H](Cc1ccc(Cl)cc1)C(=O)O (racemic) [PCPA, para-chlorophenylalanine]
mitogenic response ([1]; human PBLs, 1 μg/ml ConA, PCPA titration (FIG. 3)): inhibits the mitogenic response in a dose-dependent manner

N[C@@H](Cc1c[nH]c2ccc(O)cc12)C(=O)O [5-hydroxytryptophan]
proliferation response ([1]; 25 μM, in the absence of PCPA (FIG. 3)): significantly enhanced the proliferation response
reversal of PCPA inhibition of mitogenic response ([1]; added to PCPA-inhibited cells (FIG. 3)): this inhibition can be reversed

OC(CN1CCN(c2cccc(Cl)c2)CC1)C(c1ccccc1)c1ccccc1 (stereo not drawn) [BRL 15572]
activation / proliferative response [2]: had no effect upon the proliferative response
activation / proliferative response [1]: had no effect upon the proliferative response

CC(O)C(C)OC(=O)[C@@H]1C[C@@H]2c3cccc4c3c(cn4C(C)C)C[C@H]2N(C)C1 (stereo partly drawn) [LY 53857]
activation / proliferative response [2]: inhibit the activation response at pharmacologically relevant concentrations
activation / proliferative response [1]: inhibit the activation response at pharmacologically relevant concentrations

Cn1ccc2cc3c(cc21)CCN3C(=O)Nc1cccnc1 [SB 206553]
allograft (CTL) response [3]: Two of the treated mice had the allogeneic response completely suppressed; also recorded: Two of the three treated mice inhibited the allograft response to a degree equivalent to that observed in the Cyclosporin A-treated animals
allograft (CTL) response ([3]; listed as SB206553): inhibited the allograft response to varying degrees
allogeneic killing response [3]: striking
activation / proliferative response [2]: inhibit the activation response at pharmacologically relevant concentrations
activation / proliferative response [1]: inhibit the activation response at pharmacologically relevant concentrations
in vitro activation / proliferation of (helper) T cells [1]: immediate cessation of proliferation

Cc1cc2c(cc1Cl)N(C(=O)Nc1ccc(Oc3cccnc3C)nc1)CC2 [SB 242084]
chromatin condensation / fragmentation (apoptosis) (RPMI-8226 cells): induced programmed cell death comparable to that induced by the topoisomerase I inhibitor, camptothecin
chromatin condensation / fragmentation (apoptosis) (RPMI-8226 cells; listed as SB242084): condensed and fragmented chromatin
activation / proliferative response [2]: inhibit the activation response at pharmacologically relevant concentrations
inhibitory profile on mitogenic stimulation ([1]; 1 μg/ml ConA, harvest 72 h, drug added at time=0 or 48 hours (FIG. 12)): retained the complete inhibitory profile
activation / proliferative response [1]: inhibit the activation response at pharmacologically relevant concentrations
growth / proliferation of RPMI 8226 cells [4]: strong inhibition of growth

COc1ccccc1N1CCN(CCN(C(=O)C2CCCCC2)c2ccccn2)CC1 [WAY 100635]
in vitro activation / proliferation of (helper) T cells [1]: significantly inhibits the activation response

CC[C@@]1(O)C(=O)OCc2c1cc1n(c2=O)Cc2cc3ccccc3nc2-1 [camptothecin]
chromatin condensation / fragmentation (apoptosis) (RPMI-8226 cells): Extensive chromatin condensation and nuclear fragmentation

CSc1ccc2c(c1)C(N1CCN(C)CC1)Cc1ccccc1S2 (stereo not drawn) [methiothepin]
activation / proliferative response [2]: inhibit the activation response at pharmacologically relevant concentrations
activation / proliferative response [1]: inhibit the activation response at pharmacologically relevant concentrations
growth / proliferation of RPMI 8226 cells [4]: strong inhibition of growth

CC[C@@H](CO)NC(=O)[C@@H]1C=C2c3cccc4c3c(cn4C)C[C@H]2N(C)C1 [methysergide]
allograft (CTL) response [3]: inhibited the allograft response to varying degrees
allogeneic killing response [3]: complete inhibition of the induced killing response; also recorded: abrogated the allogeneic killing response; also recorded: inhibition profile was striking

NNCCc1ccccc1 [phenelzine]
drug concentration giving significant inhibition ([1]; 0.1 and 1 μg/ml ConA (FIGS. 5A, 5B)): 10 to 100 µM
drug concentration at which full inhibition occurs ([1]; higher ConA stimulation (10 μg/ml)): 100 to 400 µM
proliferative response ([1]; highest ConA dose 10 μg/ml, harvest 72 hours (FIG. 5C)): no inhibition was observed
stimulation of ConA-activated human PBLs ([1]; reagents at 400 μM, time course (FIG. 4)): completely shut down the stimulation
